Article PMC7986153, “A Functional Chemiluminescent Probe for in Vivo Imaging of Natural Killer Cell Activity Against Tumours” (Angewandte Chemie (International Ed. in English), 2021)
Where a SMILES comes first, the peptide text is derived from it. The star is where a group is joined. AMC = Cc1cc(=O)oc2cc(N*)ccc12

Target: T1, hr‐granzyme B (Homo sapiens, UniProt P10144)
T1 construct: in the absence and presence of active human recombinant (hr)‐granzyme B
Test: Time-course signal-to-noise ratios after reaction with granzyme B
Type: biochemical
Settings: Ac-IEPD-AMC 25 μM, hr-granzyme B 20 nM, aqueous buffer 37 °C, fluorescence 450 nm, over 30 minutes; mean ± SEM, n=6
Experimental: In vitro characterisation assays. Enzymatic assays were run in a 384-well format in a PCR opaque microplate (Thermo Scientific). All experiments were performed at least in triplicate. Dilutions and reactions using human GZM B and human neutrophil elastase were prepared in 50 mM Tris-HCl and 100 mM NaCl (pH 7.4). GZM A assays were performed in 25 mM HEPES, 0.1% CHAPS and 10 mM DTT (pH 7.5). Dilutions and incubations with CASP8 and CASP9 were prepared in 50 mM HEPES, 100 mM NaCl, 0.1% Triton X-100, 10 mM DTT, 1 mM EDTA and 10% glycerol (pH 7.4). Any other tested biomolecules were prepared in PBS. Proteolytic activity was determined by calculating the fold change in chemiluminescence signal (or fluorescence signal in the case of Ac - IEPD-AMC) over background signal provided by the corresponding dilution of the probes with the enzyme using a spectrophotometer (Synergy H1 Hybrid Reader, BioTek) at 37°C.
Unless otherwise stated, probes were utilized at a concentration of 100 μM. Enzyme concentration used: 20 nM (except CASP9, which was used at 200 nM) and all other biomolecules were tested at 100 μM. In the case where an inhibitor was used, the enzyme was pre-incubated for 1 h with the inhibitor (100 µM) before addition of probe 1.
Cell culture. […]

T1 sequence (P10144 21-247): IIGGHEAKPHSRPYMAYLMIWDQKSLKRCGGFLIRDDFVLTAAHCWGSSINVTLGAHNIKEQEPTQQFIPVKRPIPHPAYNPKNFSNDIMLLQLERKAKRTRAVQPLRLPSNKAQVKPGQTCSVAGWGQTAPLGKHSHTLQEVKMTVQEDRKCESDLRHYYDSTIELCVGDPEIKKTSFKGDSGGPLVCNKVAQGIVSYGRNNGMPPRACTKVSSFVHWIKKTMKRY

CC[C@H](C)[C@H](NC(C)=O)C(=O)N[C@@H](CCC(=O)O)C(=O)N1CCC[C@H]1C(=O)N[C@@H](CC(=O)O)C(=O)Nc1ccc2c(C)cc(=O)oc2c1 [Ac‐IEPD‐AMC] (Ac-IEPD-{AMC}) was tested, and the “Signal‐to‐noise (S/N) ratio” value was “under 5”.
